Results on four molecules are retold here after the supplement of paper PMC11061612.

For experiment [1], the system named is BPH-1 (Non-Cancerous). The experiment is described as follows: combination Emax (second highest fraction inhibited in the dose matrix, 72 h); higher = more inhibition; extreme values may be limits of the assay. In a few lines: (§1)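 Cell lines grown in DMEM/F12 or RPMI with 10% FBS were plated in 1536-well plates and held 24 hours at 37°C, 5% CO2 before 72 hours of exposure to two-drug dose matrices, with DMSO typically at 0.2%. CellTiter-Glo 2.0 luminescence gave viability, which was converted to inhibition. Vehicle wells were set to 0 and blank wells to 1. Combination Emax is the second-highest inhibition in the matrix, and Bliss excess is the observed combination effect minus the expected EA + EB − EA·EB, where EA and EB are the single-agent effects.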

Experiment [2] has as its system Detroit562 (Head and Neck Carcinoma). The description is as above. In a few lines:
as §1

Experiment [3] concerns Hs-746T (Gastric Carcinoma). Described as above. The method, boiled down: as §1
For experiment [4], the system named is NUGC-4 (Gastric Carcinoma). The description is as above. In a few lines:
as §1

For experiment [5], the system named is BE-13 (T-Lymphoblastic Leukemia). The experiment is described as follows: Bliss excess, mean over the matrix (fraction); higher = more synergy. The method, boiled down: as §1
Experiment [6] deals with BFTC-909 (Kidney Carcinoma). The description is as above. The method, boiled down:
as §1

The test system of experiment [7] is HuCCT1 (Biliary Tract Carcinoma). Described as above. The method, boiled down:
as §1

Experiment [8] has as its system L-428 (Hodgkin's Lymphoma). The description is as above. The method, boiled down:
as §1

Experiment [9] relates to OVCAR-5 (Ovarian Carcinoma). The experiment is described as above. In a few lines: as §1
In experiment [10] the test system is LNZTA3WT4 (Low Grade Glioma). The experiment is described as above. The method, boiled down:
as §1

For experiment [11], the system named is OV-56 (Ovarian Carcinoma). Described as above. In a few lines: as §1
Experiment [12] relates to SNU-16 (Gastric Carcinoma). Described as above. In a few lines: as §1
The test system of experiment [13] is LS-123 (Colorectal Carcinoma). Described as above. The method, boiled down: as §1
Experiment [14] relates to LCLC-97TM1 (Non-Small Cell Lung Carcinoma). The experiment is described as above. The method, boiled down: as §1
Experiment [15] concerns FTC-133 (Thyroid Gland Carcinoma). The experiment is described as above. In a few lines:
as §1

In experiment [16] the test system is HeLa (Cervical Carcinoma). The experiment is described as above. The method, boiled down: as §1
Experiment [17] relates to Detroit562 (Head and Neck Carcinoma). The description is as above. In a few lines: as §1
Experiment [18] has as its system Hs-746T (Gastric Carcinoma). Described as above. The method, boiled down:
as §1

Experiment [19] relates to NCI-H2052 (Mesothelioma). The experiment is described as above. The method, boiled down: as §1
The subject of experiment [20] is KMRC-20 (Kidney Carcinoma). Described as above. In a few lines:
as §1

On to `C[C@@H](c1ccc2nccn2c1)n1nnc2ncc(-c3cnn(C)c3)nc21` [Savolitinib] + Cc1c2c(nn1C)CSCc1cc(n(C)n1)CSc1cc(c3ccccc3c1)OCCCc1c(C(=O)O)n(C)c3c-2c(Cl)ccc13 [AZD5991] (first compound max 1 µM, 7x7, partner max 1 µM), for which the “combination Emax” value came to 0.199 in [1], 0.26 in [2], 0.652 in [3] and 0.221 in [4]. The Bliss excess was 0.065 in experiment [5]; -0.0074 in experiment [6]; -0.0556 in [7]; -0.0296 in experiment [8]; -0.0536 in experiment [9]; -0.0247 in [10]. Moreover, the Bliss excess is -0.0547 in experiment [11]; -0.047 in [12]; -0.0234 in [13]; -0.0311 in experiment [14]; -0.0511 in experiment [15]; -0.0696 in [16]. The Bliss excess in experiment [17] is 0.0497; in experiment [18], -0.0489; in experiment [19] it was -0.0419; in experiment [20], -0.0733.

With `Cc1cc2ncnn2cc1Nc1ncc2c(n1)n(C1CCOCC1)c(=O)n2C` [AZD7648] + C[C@@H]1COCCN1C2=NC(=NC(=C2)C3(CC3)[S@](=N)(=O)C)C4=C5C=CNC5=NC=C4 [AZD6738] (first compound max 10 µM, 7x7, partner max 10 µM), the “combination Emax” value in [1] came to 0.429; in [2] it was 0.848; in experiment [3] it was 0.677; in experiment [4], 0.509. For the same molecule, the Bliss excess in [5] is -0.0121; in experiment [6], -0.0204; in [7] it was -0.0087; in experiment [8], -0.0223; in experiment [9], 0.0263; in experiment [10], -0.0165. Besides, the Bliss excess in experiment [11] is 0.0044; in experiment [12], -0.009; in [13], -0.0021; in experiment [14], 0.0376; in experiment [15] it was -0.0369; in experiment [16] it was 0.0258. The Bliss excess was 0.0217 in [17], -0.0119 in experiment [18], 0.0186 in [19] and -0.0207 in [20].

On to `COc1cc2c(cc1OCCCCCOc1cc3c(cc1OC)C(=O)N1C=C(C)C[C@H]1C=N3)N=C[C@@H]1CC(C)=CN1C2=O` [SG3199] + O=C(c1cc(Cc2n[nH]c(=O)c3ccccc23)ccc1F)N1CCN(C(=O)C2CC2)CC1 [Olaparib] (first compound max 0.001 µM, 7x7, partner max 10 µM), for which the “combination Emax” value turned out to be 0.354 in experiment [1], 0.175 in experiment [2], 0.292 in [3] and 0.219 in experiment [4]. The Bliss excess is -0.0469 in experiment [5]; -0.0308 in [6]; -0.0309 in experiment [7]; -0.0207 in experiment [8]; -0.0314 in experiment [9]; -0.0444 in experiment [10]. The Bliss excess is -0.0297 in experiment [11]; -0.0598 in experiment [12]; -0.0211 in experiment [13]; -0.0079 in experiment [14]; -0.013 in experiment [15]; -0.0301 in experiment [16]. The Bliss excess in experiment [17] was -0.0252; in experiment [18], -0.0292; in experiment [19], -0.0319; in [20], -0.0192.

In the case of `Cc1cc2ncnn2cc1Nc1ncc2c(n1)n(C1CCOCC1)c(=O)n2C` [AZD7648] + CN(C)CCCOc1ccc(-c2ccc3ncc4c(c3c2)n(C2CCOCC2)c(=O)n4C)cn1 [AZD0156] (first compound max 10 µM, 7x7, partner max 1 µM), the “combination Emax” value in [1] was found to be 0.378; in experiment [2], 0.419; in experiment [3], 0.36; in experiment [4] it was 0.216. The Bliss excess in [5] is -0.0188; in experiment [6] it was -0.0032; in experiment [7], 0.0032; in [8], 0.069; in experiment [9], -0.0244; in experiment [10] it was 0.0113. For the same molecule, the Bliss excess in experiment [11] was 0.0081; in experiment [12], 0.0214; in experiment [13], 0.0338; in experiment [14], -0.0042; in [15] it was 0.0239; in experiment [16] it was 0.0376. The Bliss excess in [17] was 0.0129; in experiment [18], -0.024; in [19], 0.0038; in experiment [20], -0.0232.
